Measurements: patent US20220024921A1, “1,3,4-OXADIAZOLONE COMPOUND AND PHARMACEUTICAL” (NIPPON SHINYAKU CO., LTD., priority 2018, published 2022)
Counter-ions that a name gives are not always drawn.

Experiments:
[1] = biological target: T1, PIM1 serine/threonine kinase (Homo sapiens, UniProt P11309); experiment: PIM1 serine/threonine kinase inhibitory effect; type: biochemical; conditions: PIM1 serine/threonine kinase activity; ATP 40 μM; 30° C., 30 minutes
T1 construct: purchased Carna Bioscience, Inc
T1 sequence (P11309 whole entry): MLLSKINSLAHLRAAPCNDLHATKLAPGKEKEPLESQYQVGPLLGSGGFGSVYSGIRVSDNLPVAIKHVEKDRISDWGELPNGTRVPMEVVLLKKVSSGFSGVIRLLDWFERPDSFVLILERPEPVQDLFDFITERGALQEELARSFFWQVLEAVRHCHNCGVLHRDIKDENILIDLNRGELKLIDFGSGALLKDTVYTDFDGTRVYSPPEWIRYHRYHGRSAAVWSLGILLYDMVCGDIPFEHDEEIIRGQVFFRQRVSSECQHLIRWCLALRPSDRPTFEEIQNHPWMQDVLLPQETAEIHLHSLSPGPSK
Method in brief: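 Recombinant PIM1 (0.15 μg/ml final) with 0.5 μM biotinylated substrate and 40 μM ATP in pH 7.0 HEPES/MgCl2 buffer, 30 min at 30° C. Compound range was 0.01–10000 nM final, n=2. HTRF detection with streptavidin-XL665 and anti-phospho antibody-cryptate, 1 h; IC50 from non-linear regression of the 665/620 ratio.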

[2] = biological target: T2, PIM3 serine/threonine kinase (Homo sapiens, UniProt Q86V86); experiment: PIM3 serine/threonine kinase inhibitory effect; type: biochemical; conditions: PIM3 serine/threonine kinase activity; ATP 10 μM; 30° C., 30 minutes
T2 construct: purchased Carna Bioscience, Inc
Experimental: (§1) Each test substance was prepared to 10 mM with dimethylsulfoxide (DMSO), and further diluted with DMSO so as to have concentrations of 1000, 300, 100, 30, 10, 3, 1, 0.3, 0.1, 0.03, 0.01, and 0.001 μM. Moreover, each dilution was further diluted 33.3-fold with an assay buffer to prepare a test substance solution. The composition of the assay buffer was 50 mM HEPES (pH 7.0), 0.02% NaN3, 0.01% Bovine Serum Albumin, 0.1 mM Orthovanadate, 1 mM Dithiothreitol, and 5 mM MgCl2.
(§2) 5 μL of each test substance solution was added to 384-well plates (n=2), and then 2.5 μL of a substrate solution (substrate 3-biotin (Cisbio Bioassays SAS), final concentration in the reaction solution: 0.5 μM) and 2.5 μL of an ATP solution (in the cases of PIM1, 2, 3, the final concentrations in the reaction solutions were 40, 2, and 10 μM, respectively) were added, 5 μL of each of PIM1, 2, 3 serine/threonine kinase solutions (Carna Bioscience, Inc., the final concentrations in the reaction solutions were 0.15, 1.6, and 0.25 μg/ml, respectively) was finally added, and the mixture was reacted at 30° C. for 30 minutes. The test substance concentrations in the reaction solutions are 10000, 3000, 1000, 300, 100, 30, 10, 3, 1, 0.3, 0.1, and 0.01 nM.
(§3) Thereafter, 15 μL of each detection solution (62.5 nM Streptavidin-XL665 (Cisbio Bioassays SAS), […] STK antibody-Cryptate (Cisbio Bioassays SAS), 50 mM HEPES (pH 7.0), 0.8 M KF, 0.1% Bovine Serum Albumin, 20 mM ethylenediaminetetraacetic acid) was added to each well. After stirring, the mixture was reacted at 30° C. for 1 hour. Absorbance (OD620, OD665) at 620 and 665 nm was measured with a microplate reader (SpectraMax M5e, Molecular Devices, LLC).
(§4) Non-linear regression analysis was performed by an SAS system (SAS Institute Inc.) using the ratio (OD665/OD620) of the measured absorbance to calculate a test substance concentration (IC50) that inhibits PIM1 serine/threonine kinase activity by 50%.
(§5) For the compounds with the following Example numbers, in addition to the above PIM1 serine/threonine kinase activity (IC50), test substance concentrations (IC50) that inhibit PIM2 serine/threonine kinase activity and PIM3 serine/threonine kinase activity by 50% were calculated.

[3] = biological target: T3, PIM2 serine/threonine kinase (Homo sapiens, UniProt Q9P1W9); experiment: PIM2 serine/threonine kinase inhibitory effect; type: biochemical; conditions: PIM2 serine/threonine kinase activity; ATP 2 μM; 30° C., 30 minutes
T3 construct: purchased Carna Bioscience, Inc
T3 sequence (Q9P1W9 whole entry): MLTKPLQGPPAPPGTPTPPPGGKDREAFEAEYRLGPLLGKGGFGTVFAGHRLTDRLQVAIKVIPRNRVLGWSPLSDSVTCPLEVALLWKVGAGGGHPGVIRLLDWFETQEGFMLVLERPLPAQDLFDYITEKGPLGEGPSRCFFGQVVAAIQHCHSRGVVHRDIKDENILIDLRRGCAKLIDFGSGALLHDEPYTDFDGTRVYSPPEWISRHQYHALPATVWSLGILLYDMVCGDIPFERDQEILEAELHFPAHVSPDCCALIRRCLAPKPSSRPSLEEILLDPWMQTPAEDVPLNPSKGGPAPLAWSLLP
Experimental: as §1, §2, §3, §4, §5

[4] = biological target: PIM1 transgenic cells (Ba/F3) (Homo sapiens, UniProt P11309); experiment: Proliferation inhibitory effect on PIM1 transgenic cells; type: cell-based, mouse; conditions: proliferation inhibition, 72 hours, Cell Counting Kit-8, read-out: PIM1 IC50
Sequence of PIM1 transgenic cells (Ba/F3) (P11309 whole entry, stated change not applied): as the sequence (P11309 whole entry) above
Method in brief: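 Mouse Ba/F3 pro-B cells were retrovirally transduced with human PIM1 so that their proliferation depends on PIM1. Cells were treated with compound at 1–10000 nM final for 72 h, then read by CCK-8 (OD450−OD650). Inhibition was set against DMSO (0%) and no-cell blank (100%), and IC50 was obtained by two-parameter logistic regression.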

[5] = tested on: graft-versus-host disease model CB6F1 mice; experiment: Lymphocyte proliferation inhibitory effect using graft-versus-host disease model animals (splenomegaly formation); type: in vivo; conditions: Mus musculus, 240 h, oral, twice a day for 10 days, GVHD model CB6F1 mice, read-out: Inhibition rate (%) (splenomegaly formation); for inhibition in vivo at 10 mg/kg: single dose 10 mg/kg; for inhibition in vivo at 20 mg/kg: single dose 20 mg/kg; for inhibition in vivo at 6 mg/kg: single dose 6 mg/kg
Experimental: BALB/c mice (8-week-aged female) were euthanized, and then the spleen was removed from each mouse. Then, hemolysis treatment was performed to isolate spleen cells. The obtained spleen cells were intravenously transplanted into CB6F1 mice (8-week-aged female), which are C57BL/6 and BALB/c F1 mice, to prepare a model, and splenomegaly was induced. For transplantation, spleen cells for 1.2 BALB/c mouse were used for one CB6F1 mouse.
Each test substance shown in Table 64 was weighed and dissolved in a 0.5% methyl cellulose solution, thereby preparing test substance solutions of 0.3 to 10 mg/mL.
A vehicle (0.5% methyl cellulose solution) or test substance was orally administered to each CB6F1 mouse after transplantation at a dose of 3 to 50 mg/kg in terms of body weight twice a day for 10 days from the day after transplantation. The mouse was euthanized on the 11th day from the start of administration, then the spleen was removed therefrom, and the wet weight of the spleen was measured. For each of CB6F1 mice that had not undergone transplantation as a control group, the wet weight of the spleen was also measured.
The splenomegaly formation inhibition rate when the spleen weights of the mice to which the vehicle was administered after transplantation and the mice on which transplantation had not been performed were 0% and 100%, respectively, was calculated.

Compound | IC50 [1] | IC50 [2] | IC50 [3] | GI50 [4] | inhibition in vivo at 10 mg/kg [5] | inhibition in vivo at 20 mg/kg [5] | inhibition in vivo at 6 mg/kg [5]
NCc1cccc(-c2cc(-c3n[nH]c(=O)o3)ccc2Cl)c1 [Example 18, 5-[3′-(aminomethyl)-6-chloro[1,1′-biphenyl]-3-yl]-1,3,4-oxadiazol-2(3H)-one hydrochloride] | 64 nM | 340 nM | 220 nM |  |  |  | 
O=c1[nH]nc(-c2ccc(C(F)(F)F)c(-c3cncc(N4CCNCC4)c3)c2)o1 [Example 25, 5-{3-[5-(piperazin-1-yl)pyridin-3-yl]-4-(trifluoromethyl)phenyl}-1,3,4-oxadiazol-2(3H)-one dihydrochloride] | 180 nM | 740 nM | 770 nM |  |  |  | 
N[C@H]1CC[C@H](Nc2cc(-c3n[nH]c(=O)o3)ccc2C(F)(F)F)CC1 [Example 34, 5-[3-{[(1r,4r)-4-aminocyclohexyl]amino}-4-(trifluoromethyl)phenyl]-1,3,4-oxadiazol-2(3H)-one hydrochloride] | 4 nM | 16 nM | 25 nM | 910 nM |  |  | 
NC[C@H]1CC[C@H](Nc2cc(-c3n[nH]c(=O)o3)ccc2C(F)(F)F)CC1 [Example 37, 5-[3-{[(1r,4r)-4-(aminomethyl)cyclohexyl]amino}-4-(trifluoromethyl)phenyl]-1,3,4-oxadiazol-2(3H)-one hydrochloride] | 2 nM | 10 nM | 11 nM | 280 nM |  |  | 
CC(Nc1cc(-c2n[nH]c(=O)o2)ccc1C(F)(F)F)C1CCNCC1 (stereo not drawn) [Example 52, 5-[3-{[1-(piperidin-4-yl)ethyl]amino}-4-(trifluoromethyl)phenyl]-1,3,4-oxadiazol-2(3H)-one hydrochloride] | 4.2 nM | 12 nM | 19 nM | 59 nM |  |  | 
N[C@H]1CC[C@H](CNc2cc(-c3n[nH]c(=O)o3)ccc2C(F)(F)F)CC1 [Example 55, 5-[3-({[(1r,4r)-4-aminocyclohexyl]methyl}amino)-4-(trifluoromethyl)phenyl]-1,3,4-oxadiazol-2(3H)-one hydrochloride] | 0.7 nM | 5 nM | 14 nM | 34 nM |  |  | 
C[C@@H](Nc1cc(-c2n[nH]c(=O)o2)ccc1C(F)(F)F)C1CCNCC1 [Example 59, 5-[3-{[(1R)-1-(piperidin-4-yl)ethyl]amino}-4-(trifluoromethyl)phenyl]-1,3,4-oxadiazol-2(3H)-one hydrochloride] | 16 nM | 85 nM | 98 nM | 320 nM |  |  | 
N[C@H]1CC[C@H](CNc2cc(-c3n[nH]c(=O)o3)ccc2Cl)CC1 [Example 61, 5-[3-({[(1r,4r)-4-aminocyclohexyl]methyl}amino)-4-chlorophenyl]-1,3,4-oxadiazol-2(3H)-one hydrochloride] | 1 nM | 5 nM | 19 nM | 44 nM |  |  | 
CC(Nc1cc(-c2n[nH]c(=O)o2)ccc1C(F)(F)F)[C@H]1CC[C@H](N)CC1 (stereo partly drawn) [Example 63, 5-[3-({1-[(1r,4r)-4-aminocyclohexyl]ethyl}amino)-4-(trifluoromethyl)phenyl]-1,3,4-oxadiazol-2(3H)-one hydrochloride] | 0.7 nM | 5 nM | 13 nM | 28 nM |  |  | 
N[C@H]1CC[C@H](CNc2cc(-c3n[nH]c(=O)o3)ccc2OC(F)(F)F)CC1 [Example 66, 5-[3-({[(1r,4r)-4-aminocyclohexyl]methyl}amino)-4-(trifluoromethoxy)phenyl]-1,3,4-oxadiazol-2(3H)-one hydrochloride] | 4.7 nM | 18 nM | 90 nM | 190 nM |  |  | 
N[C@H]1CC[C@H](CNc2cc(-c3n[nH]c(=O)o3)ccc2Br)CC1 [Example 68, 5-[3-({[(1r,4r)-4-aminocyclohexyl]methyl}amino)-4-bromophenyl]-1,3,4-oxadiazol-2(3H)-one hydrochloride] | 1.4 nM | 5 nM | 18 nM | 61 nM |  |  | 
N[C@H]1CC[C@H](CNc2cc(-c3n[nH]c(=O)o3)cc(F)c2C(F)(F)F)CC1 [Example 69, 5-[3-({[(1r,4r)-4-aminocyclohexyl]methyl}amino)-5-fluoro-4-(trifluoromethyl)phenyl]-1,3,4-oxadiazol-2(3H)-one hydrochloride] | 1.1 nM | 4 nM | 7 nM | 37 nM |  |  | 
C[C@@H]1CNCC[C@@H]1[C@H](C)Nc1cc(-c2n[nH]c(=O)o2)cc(F)c1OC(F)F [Example 214, 5-[4-(difluoromethoxy)-3-fluoro-5-({(1S)-1-[(3S,4S)-3-methylpiperidin-4-yl]ethyl}amino)phenyl]-1,3,4-oxadiazol-2(3H)-one] | 1.8 nM |  |  | 34 nM | 23.3% | 25.3% | 
C[C@@H]1CNCC[C@@H]1[C@H](C)Nc1cc(-c2n[nH]c(=O)o2)ccc1C(F)(F)F [Example 217, 5-[3-({(1S)-1-[(3S,4S)-3-methylpiperidin-4-yl]ethyl}amino)-4-(trifluoromethyl)phenyl]-1,3,4-oxadiazol-2(3H)-one] | 2.8 nM |  |  | 26 nM | 36.3% | 41.7% | 
Cc1c(F)cc(-c2n[nH]c(=O)o2)cc1N[C@@H](C)[C@H]1CCNC[C@H]1F [Example 227, 5-[3-fluoro-5-({(1S)-1-[(3S,4R)-3-fluoropiperidin-4-yl]ethyl}amino)-4-methylphenyl]-1,3,4-oxadiazol-2(3H)-one] | 7.7 nM |  |  | 24 nM |  | 32.7% | 16.7%
Cc1c(F)cc(-c2n[nH]c(=O)o2)cc1N[C@@H](C)[C@H]1CCNC[C@H]1C [Example 228] | 4.7 nM |  |  | 15 nM |  | 33.3% | 36.7%
CC[C@@H]1CNCC[C@@H]1[C@H](C)Nc1cc(-c2n[nH]c(=O)o2)cc(F)c1C [Example 229, 5-[3-({(1S)-1-[(3S,4S)-3-ethylpiperidin-4-yl]ethyl}amino)-5-fluoro-4-methylphenyl]-1,3,4-oxadiazol-2(3H)-one] | 5.1 nM |  |  | 19 nM |  | 35.1% | 14.4%
